Assay results published in patent US12312359B2 (Vitae Pharmaceuticals, LLC, priority 2016, dated 2025).
One block for each molecule: values may come before it.

Experiments:
[1] = Water activity analysis (slurries) of sesquifumaric acid salt forms; assay type: physicochemical; settings: for Result (solid form after water activity slurry): ambient, 7 days; for Form conversion in water activity slurry: 0.22 aw (and up)
[2] = target: T1, biotinylated wild-type menin and MLL-AF9 fusion protein (menin/MLL binding) (Homo sapiens, UniProt O00255); assay: Assay 1: menin/MLL binding AlphaLISA assay, wild-type menin; settings: Table 30; column head does not say wild-type or mutated menin
T1 construct: made in house; host or cells: menin: E. coli; MLL-AF9-FLAG: HEK293 cells, used as cleared lysate
T1 sequence (O00255 1-610): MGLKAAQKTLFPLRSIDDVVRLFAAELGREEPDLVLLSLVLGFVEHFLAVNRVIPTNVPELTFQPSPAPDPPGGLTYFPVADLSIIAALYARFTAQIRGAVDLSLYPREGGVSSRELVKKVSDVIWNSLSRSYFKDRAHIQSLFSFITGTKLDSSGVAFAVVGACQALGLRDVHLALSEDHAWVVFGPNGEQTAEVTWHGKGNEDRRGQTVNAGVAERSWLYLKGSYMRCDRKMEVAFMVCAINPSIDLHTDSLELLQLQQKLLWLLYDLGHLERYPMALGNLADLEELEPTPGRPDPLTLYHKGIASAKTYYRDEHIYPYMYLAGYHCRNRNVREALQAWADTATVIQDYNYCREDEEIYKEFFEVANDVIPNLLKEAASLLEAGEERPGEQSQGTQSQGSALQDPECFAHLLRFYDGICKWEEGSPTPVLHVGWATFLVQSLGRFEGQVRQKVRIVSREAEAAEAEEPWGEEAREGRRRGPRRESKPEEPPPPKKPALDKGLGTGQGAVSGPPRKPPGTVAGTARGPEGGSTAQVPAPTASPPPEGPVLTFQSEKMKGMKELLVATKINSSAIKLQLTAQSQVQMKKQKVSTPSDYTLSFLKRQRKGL
In short: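 Compound was preincubated 30 min at room temperature with biotinylated menin (5 nM) and MLL-AF9-FLAG lysate from HEK293 cells, pH 7.4 buffer with 5% DMSO and DTT. Bead-based Alpha signal after 60 min with streptavidin donor and anti-FLAG acceptor beads; four-parameter logistic fit gave IC50.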

[3] = tested on: human acute monocytic leukemia cell line MV-4-11; assay: Assay 2: cell proliferation assay (ATP quantitation, CellTiter-Glo), MV-4-11; assay type: cell-based; settings: Homo sapiens, MV4-11, 72 h, MV-4-11 cells
In short: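 MV-4-11 cells, 1.67×10^4 per well in medium with 10% FBS, were exposed to compound for 72 h at 37° C., 5% CO2; HL-60 cells served as toxicity control. Proliferation read as ATP content by CellTiter-Glo luminescence.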

[4] = Concentration in water to achieve pH=7; assay type: physicochemical
[5] = Physical stability analysis of sesquifumaric acid salt forms (drying, heating); assay type: physicochemical

SMILES: CC(C)N(C(=O)c1cc(F)ccc1Oc1cncnc1N1CC2(CCN(CC3CCC(NS(C)(=O)=O)CC3)CC2)C1)C(C)C.CC(C)N(C(=O)c1cc(F)ccc1Oc1cncnc1N1CC2(CCN(CC3CCC(NS(C)(=O)=O)CC3)CC2)C1)C(C)C.O=C(O)/C=C/C(=O)O.O=C(O)/C=C/C(=O)O.O=C(O)/C=C/C(=O)O (stereo not shown)
Result (solid form after water activity slurry) ([1]; H2O/ACN, water activity 0.38 (2 vol % H2O)): Form A
Result (solid form after water activity slurry) ([1]; H2O/ACN, water activity 0.60 (4 vol % H2O)): Form A
Result (solid form after water activity slurry) ([1]; H2O/IPA, water activity 0.50 (6 vol % H2O)): Form A
Result (solid form after water activity slurry) ([1]; H2O/IPA, water activity 0.70 (11 vol % H2O)): Form A
Result (solid form after water activity slurry) ([1]; H2O/IPA, water activity 0.96 (50 vol % H2O)): Form A
Result (solid form after water activity slurry) ([1]; H2O/acetone, water activity 0.22 (1 vol % H2O)): Form A
Result (solid form after water activity slurry) ([1]; H2O/acetone, water activity 0.44 (3 vol % H2O)): Form A
Result (solid form after water activity slurry) ([1]; H2O/acetone, water activity 0.80 (18 vol % H2O)): Form A
Result (solid form after water activity slurry) ([1]; H2O/acetone, water activity 0.91 (50 vol % H2O)): Form A

IC50 [2]: < 100 nM
EC50 [3]: < 100 nM
SMILES: CCN(C(=O)c1cc(F)ccc1Oc1cncnc1N1CC2(CCN(C[C@H]3CC[C@H](NS(=O)(=O)CC)CC3)CC2)C1)C(C)C [Example 252, N-Ethyl-2-((4-(7-(((1r,4r)-4-(ethylsulfonamido)cyclohexyl)methyl)-2,7-diazaspiro[3.5]nonan-2-yl)pyrimidin-5-yl)oxy)-5-fluoro-N-isopropylbenzamide]

SMILES: CCN(C(=O)c1cc(F)ccc1Oc1cncnc1N1CC2(CCN(CC3CCC(NS(=O)(=O)CC)CC3)CC2)C1)C(C)C (stereo not shown) [Example 254, N-Ethyl-2-((4-(7-(((1r,4r)-4-(ethylsulfonamido)cyclohexyl)methyl)-2,7-diazaspiro[3.5]nonan-2-yl)pyrimidin-5-yl)oxy)-5-fluoro-N-isopropylbenzamide]
Concentration in water to achieve pH=7 [4]: 7.6 mg/mL

SMILES: CCN(C(=O)c1cc(F)ccc1Oc1cncnc1N1CC2(CCN(CC3CCC(NS(=O)(=O)CC)CC3)CC2)C1)C(C)C.CCN(C(=O)c1cc(F)ccc1Oc1cncnc1N1CC2(CCN(CC3CCC(NS(=O)(=O)CC)CC3)CC2)C1)C(C)C.O=C(O)/C=C/C(=O)O.O=C(O)/C=C/C(=O)O.O=C(O)/C=C/C(=O)O (stereo not shown) [Example 255, N-Ethyl-2-((4-(7-(((1r,4r)-4-(ethylsulfonamido)cyclohexyl)methyl)-2,7-diazaspiro[3.5]nonan-2-yl)pyrimidin-5-yl)oxy)-5-fluoro-N-isopropylbenzamide Sesquifumaric Acid Salt]
Concentration in water to achieve pH=7 [4]: 224.7 mg/mL

SMILES: CCN(C(=O)c1cc(F)ccc1Oc1cncnc1N1CC2(CCN(CC3CCC(NS(=O)(=O)CC)CC3)CC2)C1)C(C)C.CS(=O)(=O)O.CS(=O)(=O)O (stereo not shown) [Example 256, N-Ethyl-2-((4-(7-(((1r,4r)-4-(ethylsulfonamido)cyclohexyl)methyl)-2,7-diazaspiro[3.5]nonan-2-yl)pyrimidin-5-yl)oxy)-5-fluoro-N-isopropylbenzamide Bis-Methanesulfonic Acid Salt]
Concentration in water to achieve pH=7 [4]: 261 mg/mL

SMILES: CCN(C(=O)c1cc(F)ccc1Oc1cncnc1N1CC2(CCN(CC3CCC(NS(=O)(=O)CC)CC3)CC2)C1)C(C)C.Cl.Cl (stereo not shown) [Example 257, N-Ethyl-2-((4-(7-(((1r,4r)-4-(ethylsulfonamido)cyclohexyl)methyl)-2,7-diazaspiro[3.5]nonan-2-yl)pyrimidin-5-yl)oxy)-5-fluoro-N-isopropylbenzamide Bis-Hydrochloric Acid Salt]
Concentration in water to achieve pH=7 [4]: 317.6 mg/mL

SMILES: CC(C)N(C(=O)c1cc(F)ccc1Oc1cncnc1N1CC2(CCN(C[C@H]3CC[C@H](NS(C)(=O)=O)CC3)CC2)C1)C(C)C.CC(C)N(C(=O)c1cc(F)ccc1Oc1cncnc1N1CC2(CCN(C[C@H]3CC[C@H](NS(C)(=O)=O)CC3)CC2)C1)C(C)C.O=C(O)/C=C/C(=O)O.O=C(O)/C=C/C(=O)O.O=C(O)/C=C/C(=O)O [Form B, 5-fluoro-N,N-diisopropyl-2-((4-(7-(((1r,4r)-4-(methylsulfonamido)cyclohexyl)methyl)-2,7-diazaspiro[3.5]nonan-2-yl)pyrimidin-5-yl)oxy)benzamide sesquifumaric acid salt]
Form conversion in water activity slurry [1]: Converted to Form A
Form change after 45° C. vacuum oven [5]: converted to Form D

SMILES: CC(C)N(C(=O)c1cc(F)ccc1Oc1cncnc1N1CC2(CCN(C[C@H]3CC[C@H](NS(C)(=O)=O)CC3)CC2)C1)C(C)C.CC(C)N(C(=O)c1cc(F)ccc1Oc1cncnc1N1CC2(CCN(C[C@H]3CC[C@H](NS(C)(=O)=O)CC3)CC2)C1)C(C)C.O=C(O)/C=C/C(=O)O.O=C(O)/C=C/C(=O)O.O=C(O)/C=C/C(=O)O [Form D, 5-fluoro-N,N-diisopropyl-2-((4-(7-(((1r,4r)-4-(methylsulfonamido)cyclohexyl)methyl)-2,7-diazaspiro[3.5]nonan-2-yl)pyrimidin-5-yl)oxy)benzamide sesquifumaric acid salt]
Form conversion in water activity slurry [1]: Converted to Form A
Result (solid form after physical stability stress) ([5]; 75% RH, 2 days): Form D

SMILES: CC(C)N(C(=O)c1cc(F)ccc1Oc1cncnc1N1CC2(CCN(C[C@H]3CC[C@H](NS(C)(=O)=O)CC3)CC2)C1)C(C)C.CC(C)N(C(=O)c1cc(F)ccc1Oc1cncnc1N1CC2(CCN(C[C@H]3CC[C@H](NS(C)(=O)=O)CC3)CC2)C1)C(C)C.O=C(O)/C=C/C(=O)O.O=C(O)/C=C/C(=O)O.O=C(O)/C=C/C(=O)O [Form E, 5-fluoro-N,N-diisopropyl-2-((4-(7-(((1r,4r)-4-(methylsulfonamido)cyclohexyl)methyl)-2,7-diazaspiro[3.5]nonan-2-yl)pyrimidin-5-yl)oxy)benzamide sesquifumaric acid salt]
Form change after 45° C. vacuum oven [5]: No changes observed in XRPD
Result (solid form after physical stability stress) ([5]; 45° C. vacuum, 1 day): Form E

SMILES: CC(C)N(C(=O)c1cc(F)ccc1Oc1cncnc1N1CC2(CCN(C[C@H]3CC[C@H](NS(C)(=O)=O)CC3)CC2)C1)C(C)C.CC(C)N(C(=O)c1cc(F)ccc1Oc1cncnc1N1CC2(CCN(C[C@H]3CC[C@H](NS(C)(=O)=O)CC3)CC2)C1)C(C)C.O=C(O)/C=C/C(=O)O.O=C(O)/C=C/C(=O)O.O=C(O)/C=C/C(=O)O [Form F, 5-fluoro-N,N-diisopropyl-2-((4-(7-(((1r,4r)-4-(methylsulfonamido)cyclohexyl)methyl)-2,7-diazaspiro[3.5]nonan-2-yl)pyrimidin-5-yl)oxy)benzamide sesquifumaric acid salt]
Form conversion when slurried in ACN/water mixture ([1]; slurried in ACN/water mixture): Conversion to Form A was observed
